{
  "source": "patent US5284853A",
  "about": "“Angiotensin II receptor blocking 2,3,6 substituted quinazolinones” (American Cyanamid Company, priority 1993, dated 1994)",
  "key": {"[1]": {"target": "T1, Angiotensin II Receptor (Bos taurus, UniProt P25104)", "T1 construct": "The brownish tissue forming the adrenal cortex is scraped off and finely minced with scissors before homogenization; tissue local slaughter house (Maxwell-Cohen); host or cells: beef adrenal cortex, microsomal membranes (100,000×g pellet)", "T1 sequence (P25104 1-359)": "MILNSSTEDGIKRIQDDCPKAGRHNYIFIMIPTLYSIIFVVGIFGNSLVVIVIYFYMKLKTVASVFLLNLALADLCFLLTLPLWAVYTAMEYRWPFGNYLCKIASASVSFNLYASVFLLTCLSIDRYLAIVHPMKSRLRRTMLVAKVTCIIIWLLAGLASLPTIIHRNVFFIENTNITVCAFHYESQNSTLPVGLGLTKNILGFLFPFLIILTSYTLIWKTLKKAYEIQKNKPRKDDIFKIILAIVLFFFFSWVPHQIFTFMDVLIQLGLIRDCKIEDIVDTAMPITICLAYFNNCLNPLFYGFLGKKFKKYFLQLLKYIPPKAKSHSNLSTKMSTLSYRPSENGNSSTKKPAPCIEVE", "assay": "Receptor binding assay: competition of [^125 I](Sar^1,Ile^8)AngII binding to beef adrenal cortex microsomal membranes", "conditions": "60 min, room temperature, pH 7.4"}, "[2]": {"tested_on": "Angiotensin II (AII) vasopressor response", "assay": "AII Challenge: antagonism of the angiotensin II vasopressor response in conscious SHR", "type": "in vivo, Spontaneously hypertensive rats (Male okamoto-Aoki SHR)", "conditions": "15 mg/kg I.V.; for Average Change / Inhibition: n = 2; for Change / Control Before AII / Response After AII: per rat"}, "[3]": {"conditions": "AII 0.05 mcg/kg IV, 30 min post dose"}, "[4]": {"conditions": "AII 0.05 mcg/kg IV, 60 min post dose"}, "[5]": {"conditions": "AII 0.05 mcg/kg IV, 90 min post dose"}, "[6]": {"conditions": "AII 0.05 mcg/kg IV, 120 min post dose"}, "[7]": {"conditions": "AII 0.05 mcg/kg IV, 180 min post dose"}, "[8]": {"conditions": "AII 0.1 mcg/kg IV, 30 min post dose"}, "[9]": {"conditions": "AII 0.1 mcg/kg IV, 60 min post dose"}, "[10]": {"conditions": "AII 0.1 mcg/kg IV, 90 min post dose"}, "[11]": {"conditions": "AII 0.1 mcg/kg IV, 120 min post dose"}, "[12]": {"conditions": "AII 0.1 mcg/kg IV, 180 min post dose"}},
  "note": "Values joined by “and” are separate entries in the source; they are usually repeats but may differ in a detail not shown here. Identical values can stand only once.",
  "data": [
    {"smiles": "CCCCc1nc2ccc(C3CC(C(=O)O)=NO3)cc2c(=O)n1Cc1ccc(-c2ccccc2-c2nnn[nH]2)cc1", "note": "(stereo not drawn) [Example 28, 5-[2-butyl-3,4-dihydro-4-oxo-3-[[2'-(lH-tetrazol-5-yl)[1,1'-biphenyl]-4-yl]-methyl]-6-quinazolinyl]-4,5-dihydro-3-isoxazolecarboxylic acid]", "values": [
      {"measurement": "IC50", "setting": "[1]", "value": 600, "unit": "nM"},
      {"measurement": "Average Change", "setting": "[2]; [3]", "value": 10, "unit": "mmhg"},
      {"measurement": "Inhibition", "setting": "[2]; [3]", "value": 75, "unit": "%"},
      {"measurement": "Change", "setting": "[2]; [3]", "value": 10, "unit": "mmhg"},
      {"measurement": "Control Before AII", "setting": "[2]; [3]", "value": "185 mmhg and 167 mmhg"},
      {"measurement": "Response After AII", "setting": "[2]; [3]", "value": "195 mmhg and 177 mmhg"},
      {"measurement": "Average Change", "setting": "[2]; [4]", "value": 2.5, "unit": "mmhg"},
      {"measurement": "Inhibition", "setting": "[2]; [4]", "value": 94, "unit": "%"},
      {"measurement": "Change", "setting": "[2]; [4]", "value": "5 mmhg and 0 mmhg"},
      {"measurement": "Control Before AII", "setting": "[2]; [4]", "value": "170 mmhg and 165 mmhg"},
      {"measurement": "Response After AII", "setting": "[2]; [4]", "value": "175 mmhg and 165 mmhg"},
      {"measurement": "Average Change", "setting": "[2]; [5]", "value": 10, "unit": "mmhg"},
      {"measurement": "Inhibition", "setting": "[2]; [5]", "value": 75, "unit": "%"},
      {"measurement": "Change", "setting": "[2]; [5]", "value": 10, "unit": "mmhg"},
      {"measurement": "Control Before AII", "setting": "[2]; [5]", "value": 185, "unit": "mmhg"},
      {"measurement": "Response After AII", "setting": "[2]; [5]", "value": 195, "unit": "mmhg"},
      {"measurement": "Average Change", "setting": "[2]; [6]", "value": 16, "unit": "mmhg"},
      {"measurement": "Inhibition", "setting": "[2]; [6]", "value": 60, "unit": "%"},
      {"measurement": "Change", "setting": "[2]; [6]", "value": "22 mmhg and 10 mmhg"},
      {"measurement": "Control Before AII", "setting": "[2]; [6]", "value": "163 mmhg and 165 mmhg"},
      {"measurement": "Response After AII", "setting": "[2]; [6]", "value": "185 mmhg and 175 mmhg"},
      {"measurement": "Average Change", "setting": "[2]; [7]", "value": 15.5, "unit": "mmhg"},
      {"measurement": "Inhibition", "setting": "[2]; [7]", "value": 61, "unit": "%"},
      {"measurement": "Change", "setting": "[2]; [7]", "value": "16 mmhg and 15 mmhg"},
      {"measurement": "Control Before AII", "setting": "[2]; [7]", "value": 170, "unit": "mmhg"},
      {"measurement": "Response After AII", "setting": "[2]; [7]", "value": "186 mmhg and 185 mmhg"},
      {"measurement": "Average Change", "setting": "[2]; [8]", "value": 4.5, "unit": "mmhg"},
      {"measurement": "Inhibition", "setting": "[2]; [8]", "value": 91, "unit": "%"},
      {"measurement": "Change", "setting": "[2]; [8]", "value": "9 mmhg and 0 mmhg"},
      {"measurement": "Control Before AII", "setting": "[2]; [8]", "value": "190 mmhg and 165 mmhg"},
      {"measurement": "Response After AII", "setting": "[2]; [8]", "value": "199 mmhg and 165 mmhg"},
      {"measurement": "Average Change", "setting": "[2]; [9]", "value": 14, "unit": "mmhg"},
      {"measurement": "Inhibition", "setting": "[2]; [9]", "value": 73, "unit": "%"},
      {"measurement": "Change", "setting": "[2]; [9]", "value": "15 mmhg and 13 mmhg"},
      {"measurement": "Control Before AII", "setting": "[2]; [9]", "value": "175 mmhg and 157 mmhg"},
      {"measurement": "Response After AII", "setting": "[2]; [9]", "value": "190 mmhg and 170 mmhg"},
      {"measurement": "Average Change", "setting": "[2]; [10]", "value": 10, "unit": "mmhg"},
      {"measurement": "Inhibition", "setting": "[2]; [10]", "value": 81, "unit": "%"},
      {"measurement": "Change", "setting": "[2]; [10]", "value": 10, "unit": "mmhg"},
      {"measurement": "Control Before AII", "setting": "[2]; [10]", "value": "185 mmhg and 175 mmhg"},
      {"measurement": "Response After AII", "setting": "[2]; [10]", "value": "195 mmhg and 185 mmhg"},
      {"measurement": "Average Change", "setting": "[2]; [11]", "value": 20, "unit": "mmhg"},
      {"measurement": "Inhibition", "setting": "[2]; [11]", "value": 62, "unit": "%"},
      {"measurement": "Change", "setting": "[2]; [11]", "value": 20, "unit": "mmhg"},
      {"measurement": "Control Before AII", "setting": "[2]; [11]", "value": "180 mmhg and 165 mmhg"},
      {"measurement": "Response After AII", "setting": "[2]; [11]", "value": "200 mmhg and 185 mmhg"},
      {"measurement": "Average Change", "setting": "[2]; [12]", "value": 24.5, "unit": "mmhg"},
      {"measurement": "Inhibition", "setting": "[2]; [12]", "value": 53, "unit": "%"},
      {"measurement": "Change", "setting": "[2]; [12]", "value": "24 mmhg and 25 mmhg"},
      {"measurement": "Control Before AII", "setting": "[2]; [12]", "value": "175 mmhg and 160 mmhg"},
      {"measurement": "Response After AII", "setting": "[2]; [12]", "value": "199 mmhg and 185 mmhg"}
    ]}
  ]
}
